Source: patent publication US9200008B2 (ASKA PHARMACEUTICAL CO., LTD., priority 2010, dated 2015)

What follows are compounds tested on Human prostate cancer cell lines (PC-3 cells) (assay: Measurement of cell death-inducing activity (Test Example 1)). Settings: PC-3, 48 h, 48 hours after addition, tested at 10, 1, 0.1, 0.025 and 0.00625 μmol/L, qualitative evaluation of 10 fields, read-out: Concentration showing the cell death-inducing activity (cell death-inducing rate not less than 40%).
Type: cell-based
Procedure: The cell death-inducing activity of the compound represented by the formula (1) or the salt thereof was measured as follows.
Human prostate cancer cell lines (PC-3 cells) were seeded to 6-well plates at 1×10^5 cells/2 mL/well, and cultured in the presence of 5% CO2 at 37° C. for 48 hours. Thereafter, each compound was added thereto so as to provide 10, 1, 0.1, 0.025 and 0.00625 μmol/L. As a control, DMSO was added. After the addition, the cells were continuously cultured for 48 hours. […] When the cell death-inducing rate was not less than 40%, the compound was judged to have the cell death-inducing activity.

Structure (SMILES) | minimal effective concentration [µM]
COc1ccccc1-c1nc(C)c(NC(=O)OCc2ccc(SC)cc2)s1 [Example 9-5] | 10
COc1cc(Cl)ccc1-c1nc(C)c(NC(=O)OCc2ccc3c(c2)CCO3)s1 [Example 9-7] | 10
Cc1ccc(-c2nc(C)c(NC(=O)OCc3ccc4c(c3)CCO4)s2)c(C)c1 [Example 9-8] | 10
COc1cc(Cl)ccc1-c1nc(C)c(NC(=O)OCc2cccc(N(C)C)c2)s1 [Example 9-11] | 10
Cc1ccccc1-c1nc(C)c(NC(=O)OCc2ccc3c(c2)nnn3C)s1 [Example 9-12] | 1
COc1ccccc1-c1nc(C)c(NC(=O)OCc2ccc3c(c2)nnn3C)s1 [Example 9-13] | 0.025
COc1cc(F)ccc1-c1nc(C)c(NC(=O)OCc2ccc3c(c2)nnn3C)s1 [Example 9-14] | 0.025
COc1cc(Cl)ccc1-c1nc(C)c(NC(=O)OCc2ccc3c(c2)nnn3C)s1 [Example 9-15] | 0.00625
COc1cc(C)ccc1-c1nc(C)c(NC(=O)OCc2ccc3c(c2)nnn3C)s1 [Example 9-16] | 0.00625
Cc1ccc(-c2nc(C)c(NC(=O)OCc3ccc4c(c3)nnn4C)s2)c(C)c1 [Example 9-17] | 0.025
Cc1nc(-c2ccc(F)cc2Cl)sc1NC(=O)OCc1ccc2c(c1)nnn2C [Example 9-18] | 0.1
Cc1cc(F)ccc1-c1nc(C)c(NC(=O)OCc2ccc3c(c2)nnn3C)s1 [Example 9-19] | 0.025
Cc1cc(Cl)ccc1-c1nc(C)c(NC(=O)OCc2ccc3c(c2)nnn3C)s1 [Example 9-20] | 0.025
Cc1nc(-c2cccc3c2OCC3)sc1NC(=O)OCc1ccc2c(c1)nnn2C [Example 9-21] | 10
CCn1nnc2cc(COC(=O)Nc3sc(-c4ccccc4OC)nc3C)ccc21 [Example 9-22] | 0.025
CCn1nnc2cc(COC(=O)Nc3sc(-c4ccc(F)cc4OC)nc3C)ccc21 [Example 9-23] | 0.025
CCn1nnc2cc(COC(=O)Nc3sc(-c4ccc(Cl)cc4OC)nc3C)ccc21 [Example 9-24] | 0.00625
CCn1nnc2cc(COC(=O)Nc3sc(-c4ccc(C)cc4C)nc3C)ccc21 [Example 9-26] | 0.025
CCn1nnc2cc(COC(=O)Nc3sc(-c4ccc(F)cc4C)nc3C)ccc21 [Example 9-27] | 0.025

Structure (SMILES) | minimal effective concentration [µM]
CCn1nnc2cc(COC(=O)Nc3sc(-c4ccc(Cl)cc4C)nc3C)ccc21 [Example 9-28] | 0.025
COc1ccccc1-c1nc(C)c(NC(=O)OCc2ccc3c(ccn3C)c2)s1 [Example 9-29] | 10
COc1cc(Cl)ccc1-c1nc(C)c(NC(=O)OCc2ccc3c(ccn3C)c2)s1 [Example 9-30] | 1
Cc1cc(Cl)ccc1-c1nc(C)c(NC(=O)OCc2ccc3c(ccn3C)c2)s1 [Example 9-31] | 1
Cc1nc(-c2ccccc2)sc1NC(=O)OCc1ccc2c(c1)ncn2C [Example 9-32] | 1
Cc1ccccc1-c1nc(C)c(NC(=O)OCc2ccc3c(c2)ncn3C)s1 [Example 9-33] | 0.025
Cc1ccc(-c2nc(C)c(NC(=O)OCc3ccc4c(c3)ncn4C)s2)cc1 [Example 9-35] | 0.1
CCc1ccccc1-c1nc(C)c(NC(=O)OCc2ccc3c(c2)ncn3C)s1 [Example 9-36] | 0.025
COc1ccccc1-c1nc(C)c(NC(=O)OCc2ccc3c(c2)ncn3C)s1 [Example 9-37] | 0.025
COc1cc(F)ccc1-c1nc(C)c(NC(=O)OCc2ccc3c(c2)ncn3C)s1 [Example 9-38] | 0.00625
COc1cc(Cl)ccc1-c1nc(C)c(NC(=O)OCc2ccc3c(c2)ncn3C)s1 [Example 9-39] | 0.00625
COc1cc(C)ccc1-c1nc(C)c(NC(=O)OCc2ccc3c(c2)ncn3C)s1 [Example 9-40] | 0.00625
COc1ccc(-c2nc(C)c(NC(=O)OCc3ccc4c(c3)ncn4C)s2)c(OC)c1 [Example 9-41] | 0.025
Cc1ccc(-c2nc(C)c(NC(=O)OCc3ccc4c(c3)ncn4C)s2)c(C)c1 [Example 9-42] | 0.00625
Cc1nc(-c2ccccc2F)sc1NC(=O)OCc1ccc2c(c1)ncn2C [Example 9-43] | 1
Cc1nc(-c2cccc(F)c2)sc1NC(=O)OCc1ccc2c(c1)ncn2C [Example 9-44] | 1
Cc1nc(-c2ccc(F)cc2)sc1NC(=O)OCc1ccc2c(c1)ncn2C [Example 9-45] | 1
Cc1nc(-c2ccc(F)cc2F)sc1NC(=O)OCc1ccc2c(c1)ncn2C [Example 9-46] | 0.1
Cc1nc(-c2ccc(F)cc2Cl)sc1NC(=O)OCc1ccc2c(c1)ncn2C [Example 9-47] | 0.025

Structure (SMILES) | minimal effective concentration [µM]
Cc1cc(F)ccc1-c1nc(C)c(NC(=O)OCc2ccc3c(c2)ncn3C)s1 [Example 9-48] | 0.00625
Cc1cc(Cl)ccc1-c1nc(C)c(NC(=O)OCc2ccc3c(c2)ncn3C)s1 [Example 9-49] | 0.00625
Cc1nc(-c2ccc3c(c2)CCO3)sc1NC(=O)OCc1ccc2c(c1)ncn2C [Example 9-50] | 10
CCn1cnc2cc(COC(=O)Nc3sc(-c4ccccc4C)nc3C)ccc21 [Example 9-53] | 0.1
CCn1cnc2cc(COC(=O)Nc3sc(-c4cccc(C)c4)nc3C)ccc21 [Example 9-54] | 1
CCn1cnc2cc(COC(=O)Nc3sc(-c4ccc(C)cc4)nc3C)ccc21 [Example 9-55] | 10
CCc1ccccc1-c1nc(C)c(NC(=O)OCc2ccc3c(c2)ncn3CC)s1 [Example 9-56] | 0.025
CCn1cnc2cc(COC(=O)Nc3sc(-c4ccc(F)cc4OC)nc3C)ccc21 [Example 9-58] | 0.00625
CCn1cnc2cc(COC(=O)Nc3sc(-c4ccc(Cl)cc4OC)nc3C)ccc21 [Example 9-59] | 0.00625
CCn1cnc2cc(COC(=O)Nc3sc(-c4ccc(C)cc4OC)nc3C)ccc21 [Example 9-60] | 0.00625
CCn1cnc2cc(COC(=O)Nc3sc(-c4ccc(OC)cc4OC)nc3C)ccc21 [Example 9-61] | 0.00625
CCn1cnc2cc(COC(=O)Nc3sc(-c4ccc(C)cc4C)nc3C)ccc21 [Example 9-62] | 0.00625
CCn1cnc2cc(COC(=O)Nc3sc(-c4ccc(F)cc4C)nc3C)ccc21 [Example 9-63] | 0.00625
CCn1cnc2cc(COC(=O)Nc3sc(-c4ccc(Cl)cc4C)nc3C)ccc21 [Example 9-64] | 0.00625
CCCn1cnc2cc(COC(=O)Nc3sc(-c4ccccc4OC)nc3C)ccc21 [Example 9-66] | 1
CCCn1cnc2cc(COC(=O)Nc3sc(-c4ccc(Cl)cc4OC)nc3C)ccc21 [Example 9-67] | 0.025
CCCn1cnc2cc(COC(=O)Nc3sc(-c4ccc(C)cc4OC)nc3C)ccc21 [Example 9-68] | 0.1
CCCn1cnc2cc(COC(=O)Nc3sc(-c4ccc(C)cc4C)nc3C)ccc21 [Example 9-69] | 1
